Results on eleven molecules are retold here after US7678815B2, “Thiazole-4-carboxyamide derivatives” (Hoffmann-La Roche Inc., priority 2005, dated 2010).

The structures appear in SMILES notation. pKi: −log10 of the molar value.

T1 sequence (P41594 21-1180 isoform P41594-2 limits assumed): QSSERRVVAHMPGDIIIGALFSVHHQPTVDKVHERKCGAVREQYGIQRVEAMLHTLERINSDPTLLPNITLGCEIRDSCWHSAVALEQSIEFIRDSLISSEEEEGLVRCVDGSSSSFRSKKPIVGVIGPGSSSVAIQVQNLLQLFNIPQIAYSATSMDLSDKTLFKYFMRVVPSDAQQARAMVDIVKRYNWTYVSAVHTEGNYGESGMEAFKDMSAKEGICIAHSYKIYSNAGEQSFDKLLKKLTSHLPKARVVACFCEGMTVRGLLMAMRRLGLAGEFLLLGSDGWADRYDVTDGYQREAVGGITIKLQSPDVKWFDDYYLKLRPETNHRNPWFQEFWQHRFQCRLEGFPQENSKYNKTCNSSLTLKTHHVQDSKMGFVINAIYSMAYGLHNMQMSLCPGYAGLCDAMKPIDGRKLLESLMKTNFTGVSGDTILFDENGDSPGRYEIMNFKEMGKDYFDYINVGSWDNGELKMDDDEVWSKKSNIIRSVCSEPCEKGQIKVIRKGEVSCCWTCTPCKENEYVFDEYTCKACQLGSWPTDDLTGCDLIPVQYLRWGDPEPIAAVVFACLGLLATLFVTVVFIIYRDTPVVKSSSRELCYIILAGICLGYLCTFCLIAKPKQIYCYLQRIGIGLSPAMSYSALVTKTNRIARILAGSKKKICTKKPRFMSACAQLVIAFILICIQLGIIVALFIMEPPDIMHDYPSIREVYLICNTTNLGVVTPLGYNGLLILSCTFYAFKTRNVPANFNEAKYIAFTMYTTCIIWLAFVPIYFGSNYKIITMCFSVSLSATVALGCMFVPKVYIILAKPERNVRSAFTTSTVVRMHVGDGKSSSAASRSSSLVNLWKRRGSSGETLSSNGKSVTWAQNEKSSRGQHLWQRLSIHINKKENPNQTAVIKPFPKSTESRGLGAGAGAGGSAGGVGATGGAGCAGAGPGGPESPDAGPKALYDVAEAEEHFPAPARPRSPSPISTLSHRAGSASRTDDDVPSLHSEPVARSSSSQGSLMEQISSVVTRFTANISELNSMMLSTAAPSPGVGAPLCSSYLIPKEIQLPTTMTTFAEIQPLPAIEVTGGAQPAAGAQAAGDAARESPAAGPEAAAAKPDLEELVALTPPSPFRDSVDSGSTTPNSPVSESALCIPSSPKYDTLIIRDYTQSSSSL

This assay addresses T1, human mGlu 5a receptor (Homo sapiens, UniProt P41594).
T1 construct: expressed in transfected cells; host or cells: EBNA cells (transient transfection), cell membrane homogenates
The assay is described as follows: [3H]MPEP competition binding on membranes of EBNA cells transfected with human mGlu 5a receptor. The conditions noted are these: competition with [3H]MPEP (2 nM), 1 h at 4° C., Ki=IC50/[1+L/Kd]. Here is the method:
The pharmacological activity of the compounds was tested using the following method: For binding experiments, cDNA encoding human mGlu 5a receptor was transiently transfected into EBNA cells using a procedure described by Schlaeger and Christensen [Cytotechnology 15:1-13 (1998)]. Cell membrane homogenates were stored at −80° C. until the day of assay where upon they were thawed and resuspended and polytronized in 15 mM Tris-HCl, 120 mM NaCl, 100 mM KCl, 25 mM CaCl2, 25 mM MgCl2 binding buffer at pH 7.4 to a final assay concentration of 20 μg protein/well.
Saturation isotherms were determined by addition of twelve [^3H]MPEP concentrations (0.04-100 nM) to these membranes (in a total volume of 200 μl) for 1 h at 4° C. Competition experiments were performed with a fixed concentration of [^3H]MPEP (2 nM) and IC50 values of test compounds evaluated using 11 concentrations (0.3-10,000 nM). Incubations were performed for 1 h at 4° C.
At the end of the incubation, membranes were filtered onto unifilter (96-well white microplate with bonded GF/C filter preincubated 1 h in 0.1% PEI in wash buffer, Packard Bio-Science, Meriden, Conn.) with a Filtermate 96 harvester (Packard BioScience) and washed 3 times with cold 50 mM Tris-HCl, pH 7.4 buffer. Nonspecific binding was measured in the presence of 10 μM MPEP. The radioactivity on the filter was counted (3 min) on a Packard Top-count microplate scintillation counter with quenching correction after addition of 45 μl of microscint 40 (Canberra Packard S.A., Zürich, Switzerland) and shaking for 20 min.
For binding experiments the Ki values of the compounds tested are given. The Ki value is defined by the following formula: Ki=IC50/[1+L/Kd] in which the IC50 values are those concentrations of the compounds tested which cause 50% inhibition of the competing radioligand ([^3H]MPEP). L is the concentration of radioligand used in the binding experiment and the Kd value of the radioligand is empirically determined for each batch of membranes prepared.
Consider `Cc1cccc(NC(=O)c2ncsc2Nc2cccnc2)n1` [Example 1, 5-(Pyridin-3-ylamino)-thiazole-4-carboxylic acid (6-methyl-pyridin-2-yl)-amide], for which the pKi is 7.54.
`O=C(Nc1cccc(Cl)c1)c1ncsc1Nc1cccnc1` [Example 2, 5-(Pyridin-3-ylamino)-thiazole-4-carboxylic acid (3-chloro-phenyl)-amide]: the pKi was 6.91.
To `Cc1cccc(NC(=O)c2ncsc2Nc2ccccc2)n1` [Example 13, 5-Phenylamino-thiazole-4-carboxylic acid (6-methyl-pyridin-2-yl)-amide] belongs 7.59; to `O=C(Nc1cccc(Cl)c1)c1ncsc1NC1CC1` [Example 18, 5-Cyclopropylamino-thiazole-4-carboxylic acid (3-chloro-phenyl)-amide], 6.34.
As to `CNc1scnc1C(=O)Nc1cccc(Cl)c1` [Example 24, 5-Methylamino-thiazole-4-carboxylic acid (3-chloro-phenyl)-amide], the pKi was 6.90.
Consider `Cc1cccc(NC(=O)c2ncsc2Nc2c(C)noc2C)n1` [Example 74, 5-(3,5-Dimethyl-isoxazol-4-ylamino)-thiazole-4-carboxylic acid (6-methyl-pyridin-2-yl)-amide], for which the pKi is 7.00.
As for `Cc1csc(NC(=O)c2ncsc2Nc2cccc(C#N)c2)n1` [Example 81, 5-(3-Cyano-phenylamino)-thiazole-4-carboxylic acid (4-methyl-thiazol-2-yl)-amide], the pKi was 7.72.
Regarding `CC(=O)c1cccc(Nc2scnc2C(=O)Nc2cccc(C)n2)c1` [Example 88, 5-(3-Acetyl-phenylamino)-thiazole-4-carboxylic acid (6-methyl-pyridin-2-yl)-amide], the pKi is 7.74.
To `Cc1nc(C(=O)Nc2cccc(Cl)c2)c(Nc2cccc(CNC(=O)OC(C)(C)C)c2)s1` [Example 145, {3-[4-(3-Chloro-phenylcarbamoyl)-2-methyl-thiazol-5-ylamino]-benzyl}-carbamic acid tert-butyl ester] belongs 7.40.
With `Cc1cccc(NC(=O)c2nc(C)sc2Nc2cccc(S(C)(=O)=O)c2)n1` [Example 149, 5-(3-Methanesulfonyl-phenylamino)-2-methyl-thiazole-4-carboxylic acid (6-methyl-pyridin-2-yl)-amide], the pKi was 7.28.
To `Cc1nccc(NC(=O)c2nc(C)sc2Nc2cccc(C(N)=O)c2)n1` [Example 209, 5-(3-Carbamoyl-phenylamino)-2-methyl-thiazole-4-carboxylic acid (2-methyl-pyrimidin-4-yl)-amide] belongs 7.40.
